Here are results for 9 compounds from PMC4626215, “Esculentin-2CHa-Related Peptides Modulate Islet Cell Function and Improve Glucose Tolerance in Mice with Diet-Induced Obesity and Insulin Resistance” (PLoS ONE, 2015).

For series [1], the system named is BRIN-BD11 cells. In words: Membrane potential, FLIPR membrane assay kit. To be noted: for Membrane potential (AUC, x 10^3 RFU): 1 μM peptide, 5 min, mean ± SEM, n = 8. It counts as cell-based, rat. On the procedure:
(§1) Effects of esculentin-2CHa (1 μM) and its analogues on membrane potential and [Ca^2+]i in BRIN-BD11 cells over a period of 5 min were assessed using commercially available FLIPR membrane or calcium assay kit (Molecular Devices, USA) as previously described. Data were captured using a Flexstation 3 microplate reader equipped with automatic fluid transfer unit (Molecular Devices, USA).

The test system of series [2] is BRIN-BD11 rat clonal β-cells. Kind of series: In vitro insulin release from BRIN-BD11 cells. It counts as cell-based. As to conditions: 5.6 mM glucose; for BRIN-BD11 cells (Threshold concentration): minimum concentration producing a significant increase in rate of insulin release, 37°C.
Description: (§2) In vitro insulin-releasing effects of esculentin-2CHa and its analogues were assessed using BRIN-BD11 rat clonal β-cells and mouse islets. In the first set of experiments, BRIN-BD11 cells were incubated with the peptides in the concentration range (1 pM– 3 μM) in Krebs-Ringer bicarbonate buffer containing 5.6 mM glucose for 20 min at 37°C as previously described [15–17]. Insulin-releasing effects were also assessed using buffer supplemented with 1.4 and 16.7mm glucose concentrations and with established modulators of insulin release as previously described [15–17]. In a second set of experiments, islets from NIH Swiss mice, isolated by collagenase digestion [18, 19], were incubated with a range of concentrations of esculentin-2CHa or its analogues (0.1 nM– 1 μM) for 1 h in Krebs-Ringer bicarbonate (KRB) buffer supplemented with 1.4, 5.6 or 16.7 mM glucose. Following test incubations, aliquots of buffer were retrieved and stored at -20°C for measurement of insulin by radioimmunoassay [20].
The test system of series [3] is BRIN-BD11 cells. Kind of series: Intracellular calcium ([Ca2+]i), FLIPR calcium assay kit. The class given is cell-based, rat. As to conditions: for Intracellular Ca2+ (AUC, x 10^2 RFU): 1 μM peptide, 5 min, mean ± SEM, n = 8. On the procedure: as §1
Series [4] has as its system BRIN-BD11 cells. As to conditions: 3 μM peptide (highest concentration); mean ± SEM, n = 8. On the procedure:
In vitro insulin-releasing effects of esculentin-2CHa and its analogues were assessed using BRIN-BD11 rat clonal β-cells and mouse islets. In the first set of experiments, BRIN-BD11 cells were incubated with the peptides in the concentration range (1 pM– 3 μM) in Krebs-Ringer bicarbonate buffer containing 5.6 mM glucose for 20 min at 37°C as previously described. Insulin-releasing effects were also assessed using buffer supplemented with 1.4 and 16.7mm glucose concentrations and with established modulators of insulin release as previously described. In a second set of experiments, islets from NIH Swiss mice, isolated by collagenase digestion, were incubated with a range of concentrations of esculentin-2CHa or its analogues (0.1 nM– 1 μM) for 1 h in Krebs-Ringer bicarbonate (KRB) buffer supplemented with 1.4, 5.6 or 16.7 mM glucose. Following test incubations, aliquots of buffer were retrieved and stored at -20°C for measurement of insulin by radioimmunoassay. In the experiments with BRIN-BD11 cells, the release of lactate dehydrogenase (LDH) was measured as an indicator of the integrity of the plasma membrane using commercially available CytoTox 96 non-radioactive cytotoxicity assay kit (Promega, Madison, WI, USA) according to the manufacturer’s recommended protocol.

The subject of a further series is high fat fed mice. In words: Acute in vivo glucose tolerance and insulin release. To be noted: for Plasma glucose (AUC) / Plasma insulin (AUC): ip glucose 18 mmol/kg with peptide 75 nmol/kg, AUC 0-60 min, mean ± SEM, n = 8. More on the design: species or system mouse. On the procedure:
Male National Institutes of Health (NIH) Swiss mice (Harlan Ltd, UK) were housed separately in an air-conditioned room (22 ± 2°C) with relative humidity of 51 ± 5% and a 12-hour light: 12-hour dark cycle and maintained on a high fat diet containing 45% fat, 20% protein and 35% carbohydrate (total energy 19.5 kJ/g, Dietex International Ltd, Witham, UK) for 120 days. Mice maintained on standard rodent diet containing 10% fat, 30% protein and 60% carbohydrates (total energy 12.99 kJ/g) were used as controls. Both groups of animals were allowed food and water ad libitum. All animal experiments were carried out in accordance with the UK Animals (Scientific Procedures) Act 1986 and EU Directive 2010/63EU for animal experiments. The study was approved by University of Ulster Research Ethics Committee.
For acute in vivo studies, overnight fasted, high fat fed mice (n = 8) received an intraperitoneal injection of glucose alone (18 mmol/kg body weight) or in combination with esculentin-2CHa or its analogues (75 nmol/kg body weight). This peptide dose was selected on the basis of a pilot study that examined acute effects of different doses of esculentin-2CHa on glucose tolerance in lean mice. Blood samples were collected as described previously before injection and at times indicated in the Figures for the measurement of plasma glucose and insulin concentrations.
Pancreatic tissues were homogenized in 20 mM Tris-HCl, 150 mM NaCl, 1 mM EDTA, 1 mM EGTA and 0.5% Triton X 100; pH 7.5 as previously described. Blood samples (approximately 150 μl), collected from the cut tip of the tail vein of unanesthetized mice at intervals indicated in the Figures were used for blood glucose measurements and determination of plasma insulin as previously described. Blood glucose was measured using a hand-held Ascencia Contour meter (Bayer Healthcare, UK). Plasma and pancreatic insulin were determined by radioimmunoassay. Plasma and pancreatic glucagon contents were determined by ELISA using commercially available kit (Millipore, MA, USA). Plasma creatinine, alanine transaminase (ALT), aspartic acid transaminase (AST) and alkaline phosphatase (ALP) were measured using commercially available kits (Randox Laboratories, UK) as indicators of renal and liver function. Plasma triglyceride and cholesterol concentrations were measured using an automated clinical chemistry analyser (I-lab 650, and reagents purchased from Instrumentation Laboratory (Warrington, UK). The assay kit for cholesterol was obtained from Randox Laboratories (Antrim, UK). Estimation of LDL cholesterol concentrations was achieved using the Friedewald equation as described previously.

The subject of series [5] is islets from NIH Swiss mice. In words: In vitro insulin release from isolated mouse islets. As to conditions: 16.7 mM glucose; for Stimulation of insulin release from islets, fold of basal: 1 μM, 1 h; for Mouse islets (Threshold concentration): insulin release, 1 h incubation, n = 8. It counts as cell-based.
Description: as §2
Setting [6] is: peptide 75 nmol/kg ip with glucose 18 mmol/kg.

Bridges are numbered along the chain shown (N, C = ends). Where no end group is shown, it is not given here.

For `[Cl-].[K+]` [KCl, reference compound], the “Increase of membrane potential” value in the series on BRIN-BD11 cells [1] (30 mM) is given as 5.2 fold.
On to `C[C@H](N)C(=O)O` [alanine, reference compound], for which, in series [2] (10 mM, 20 min, n = 8), the “Increase of insulin secretion, fold of basal” value turned out to be 7.3 fold. For the same compound, in the series on BRIN-BD11 cells [3] (10 mM), the “Increase of intracellular Ca2+” value is reported as 4.6 fold.
In the case of “GFSSIFRGVAKFASKGLGKDKAKLGVDLVACKISKQC (disulfide 31-37 (inferred)) [[L21K]Esculentin-2CHa, substituted analogue of esculentin-2CHa with increased cationicity]”, the “BRIN-BD11 cells (Threshold concentration)” value (“BRIN-BD11 cells” for short) in series [2] (20 min, n = 8) was found to be 10 pM. Further, the “Membrane potential (AUC, x 10^3 RFU)” value in the series on BRIN-BD11 cells [1] was 7.78±0.31 x 10^3 RFU. Besides, in the series with BRIN-BD11 cells [4], the “LDH release (% of control)” value is listed as 100.6±2.0 % of control. In addition, in the series with high fat fed mice, the “Plasma glucose (AUC)” value is recorded as 598.68±35.23^ΔΔ mmol/l.min and the “Plasma insulin (AUC)” value is 131.12±14.25^Δ ng/ml.min. For the same compound, in series [5], the “Stimulation of insulin release from islets, fold of basal” value (from here on “Stimulation … fold of basal”) came to 2.6 fold and the “Mouse islets (Threshold concentration)” value is 10 nM. Also, the “Intracellular Ca2+ (AUC, x 10^2 RFU)” value with BRIN-BD11 cells [3] is listed as 6.14±0.41 x 10^2 RFU.
As to “GFSSIFRGVAKFASKGLGKDLAKKGVDLVACKISKQC (disulfide 31-37 (inferred)) [[L24K]Esculentin-2CHa, substituted analogue of esculentin-2CHa with increased cationicity]”, in series [2] (20 min, n = 8), the “BRIN-BD11 cells” value stood at 10 pM. The “Membrane potential (AUC, x 10^3 RFU)” value with BRIN-BD11 cells [1] is on record as 7.87±0.19 x 10^3 RFU. In the series with BRIN-BD11 cells [4], the “LDH release (% of control)” value is reported as 101.3±3.1 % of control. Further, in the series with high fat fed mice, the “Plasma glucose (AUC)” value was 662.25±32.14^ΔΔ mmol/l.min and the “Plasma insulin (AUC)” value was 129.89±11.02^Δ ng/ml.min. For the same compound, in series [5], the “Stimulation … fold of basal” value came out at 2.3 fold and the “Mouse islets (Threshold concentration)” value stood at 10 nM. In addition, in the series on BRIN-BD11 cells [3], the “Intracellular Ca2+ (AUC, x 10^2 RFU)” value is 6.28±0.62 x 10^2 RFU.
Turning to “GFSSIFRGVAKFASKGLGKDLAKLGVDLVACKISKQC (disulfide 31-37 (inferred)) [Esculentin-2CHa, frog skin host-defense peptide first isolated from Lithobates chiricahuensis; synthetic]”, the “Insulin-secretory response, fold of basal” value in series [2] (3 μM peptide, 20 min) is 10.3 fold. Further, the “Membrane potential (AUC, x 10^3 RFU)” value with BRIN-BD11 cells [1] is 8.01±0.28 x 10^3 RFU. Besides, the “LDH release (% of control)” value in the series on BRIN-BD11 cells [4] is 102.7±1.1 % of control. In addition, in the series with high fat fed mice, the “Plasma glucose (AUC)” value was 463.99 ± 46.95 mmol·min/L and the “Plasma insulin (AUC)” value was found to be 165.05 ± 16.89 ng·min/mL. In the series on high fat fed mice (setting [6]), the “Decrease of plasma glucose AUC versus glucose alone” value turned out to be 33% and the “Increase in integrated plasma insulin response versus glucose alone” value stood at 48%. Further, in series [5], the “Stimulation … fold of basal” value was 2.7 fold and the “Mouse islets (Threshold concentration)” value is listed as 10 nM. Further, the “Intracellular Ca2+ (AUC, x 10^2 RFU)” value in the series with BRIN-BD11 cells [3] is 6.44±0.47 x 10^2 RFU.
Take “GFSSIFRGVAKFASKGLGKDLAKLGVDLVAKKISKQC [[C31K]Esculentin-2CHa, substituted analogue of esculentin-2CHa with increased cationicity]”: the “Stimulatory effect on insulin release at 3 μM compared with native peptide” value in series [2] (3 μM) is listed as “greater”. Besides, the “BRIN-BD11 cells” value in series [2] (20 min, n = 8) is 10 pM. The “Membrane potential (AUC, x 10^3 RFU)” value with BRIN-BD11 cells [1] is listed as 7.92±0.14 x 10^3 RFU. For the same compound, in the series with BRIN-BD11 cells [4], the “LDH release (% of control)” value is 100.2±2.8 % of control. Also, in the series with high fat fed mice, the “Plasma glucose (AUC)” value worked out at 410.72 ± 29.25 mmol·min/L and the “Plasma insulin (AUC)” value is on record as 240.32±31.04 ^,ΔΔΔ ng/ml.min. In the series on high fat fed mice (setting [6]), the “Decrease of plasma glucose AUC versus glucose alone” value was determined as 40% and the “Stimulation of insulin response relative to that with esculentin-2CHa” value came out at 2.4 fold. Besides, in series [5], the “Stimulation … fold of basal” value was determined as 3.3 fold and the “Mouse islets (Threshold concentration)” value came out at 0.1 nM. The “Intracellular Ca2+ (AUC, x 10^2 RFU)” value in the series on BRIN-BD11 cells [3] is on record as 6.32±0.72 x 10^2 RFU.
For the compound “GFSSIFRGVAKFASKGLGKDLAKLGVDLVASKISKQS [[C31S,C37S]Esculentin-2CHa, analogue with Cys31 and Cys37 replaced by serine]”, in series [2] (20 min, n = 8), the “BRIN-BD11 cells” value amounted to 10 pM. Further, in the series on BRIN-BD11 cells [1], the “Membrane potential (AUC, x 10^3 RFU)” value is listed as 7.96±0.24 x 10^3 RFU. Also, the “LDH release (% of control)” value in the series on BRIN-BD11 cells [4] is listed as 104.3±3.1 % of control. Further, in the series on high fat fed mice, the “Plasma glucose (AUC)” value is 618.65±86.0^ΔΔ mmol/l.min and the “Plasma insulin (AUC)” value is given as 122.74±28.65^Δ ng/ml.min. Further, in series [5], the “Stimulation … fold of basal” value came to 2.6 fold and the “Mouse islets (Threshold concentration)” value came to 1 nM. Further, the “Intracellular Ca2+ (AUC, x 10^2 RFU)” value in the series with BRIN-BD11 cells [3] is 6.55±0.36 x 10^2 RFU.
Turning to “GFSSIFRGVAKFASKGLGKKLAKLGVKLVACKISKQC (disulfide 31-37 (inferred)) [[D20K, D27K]Esculentin-2CHa, analogue with Asp20 and Asp27 replaced by L-Lysine]”, in series [2] (20 min, n = 8), the “BRIN-BD11 cells” value amounted to 100 pM. The “Membrane potential (AUC, x 10^3 RFU)” value in the series with BRIN-BD11 cells [1] is reported as 7.85±0.32 x 10^3 RFU. Also, the “LDH release (% of control)” value with BRIN-BD11 cells [4] is 102.5±2.6 % of control. Also, in the series with high fat fed mice, the “Plasma glucose (AUC)” value is listed as 667.78±60.23^ΔΔ mmol/l.min and the “Plasma insulin (AUC)” value is 122.96±16.76^Δ ng/ml.min. In series [5], the “Stimulation … fold of basal” value is 1.7 fold and the “Mouse islets (Threshold concentration)” value was 10 nM. Moreover, in the series on BRIN-BD11 cells [3], the “Intracellular Ca2+ (AUC, x 10^2 RFU)” value is on record as 6.10±0.46 x 10^2 RFU.
On to “GLP-1: incretin hormone used as positive control for islet insulin release [reference compound]”, for which, in series [5], the “Stimulation … fold of basal” value was 2.4 fold.
